In PubChem BioAssay AID330 (DTP/NCI, 2004):
Where “and” joins values, the source holds several entries; their conditions need not be identical. Equal entries are not always repeated. Toxic doses and inconclusive results are not listed.

Test system: P388 leukemia ip, CD2F1 mice, survival T/C
Assay: NCI In Vivo Anticancer Drug Screen. Data for tumor model P388 Leukemia (intraperitoneal) in CD2F1 (CDF1) mice
Conditions: endpoint: median survival time, higher = longer survival
Description: The antitumor activity of compounds was measured in mice bearing transplantable tumors. Survival or tumor size were measured and the results are expressed as the measurement made in the treated group (T) divided by the measurement made in the vehicle treated control group (C). The tumor model used in this assay is P388 Leukemia (intraperitoneal) in CD2F1 (CDF1) mice

[1] = dose: 50.0 mg/kg/injection, schedule: Q01DX005 (ip), vehicle: saline
[2] = dose: 100.0 mg/kg/injection, schedule: Q01DX005 (ip), vehicle: saline
[3] = dose: 200.0 mg/kg/injection, schedule: Q01DX005 (ip), vehicle: saline
[4] = dose: 50.0 mg/kg/injection, schedule: Q01DX009 (ip), vehicle: Klucel (hydroxypropylcellulose) (HPC)
[5] = dose: 100.0 mg/kg/injection, schedule: Q01DX009 (ip), vehicle: Klucel (hydroxypropylcellulose) (HPC)
[6] = dose: 200.0 mg/kg/injection, schedule: Q01DX009 (ip), vehicle: Klucel (hydroxypropylcellulose) (HPC)
[7] = dose: 50.0 mg/kg/injection, schedule: Q01DX009 (ip), vehicle: saline
[8] = dose: 100.0 mg/kg/injection, schedule: Q01DX009 (ip), vehicle: saline
[9] = dose: 200.0 mg/kg/injection, schedule: Q01DX009 (ip), vehicle: saline
[10] = dose: 50.0 mg/kg/injection, schedule: Q01DX009 (ip), vehicle: saline + alcohol
[11] = dose: 100.0 mg/kg/injection, schedule: Q01DX009 (ip), vehicle: saline + alcohol
[12] = dose: 50.0 mg/kg/injection, schedule: Q01DX005 (ip), vehicle: Klucel (hydroxypropylcellulose) (HPC)
[13] = dose: 100.0 mg/kg/injection, schedule: Q01DX005 (ip), vehicle: Klucel (hydroxypropylcellulose) (HPC)
[14] = dose: 200.0 mg/kg/injection, schedule: Q01DX005 (ip), vehicle: Klucel (hydroxypropylcellulose) (HPC)
[15] = dose: 50.0 mg/kg/injection, schedule: Q01DX005 (ip), vehicle: saline with Tween-80
[16] = dose: 100.0 mg/kg/injection, schedule: Q01DX005 (ip), vehicle: saline with Tween-80
[17] = dose: 100.0 mg/kg/injection, schedule: Q01DX009 (ip), vehicle: saline with Tween-80
[18] = dose: 100.0 mg/kg/injection, schedule: Q04DX003 (ip), vehicle: saline with Tween-80
[19] = dose: 200.0 mg/kg/injection, schedule: Q01DX009 (ip), vehicle: saline with Tween-80
[20] = dose: 200.0 mg/kg/injection, schedule: Q04DX003 (ip), vehicle: saline with Tween-80

Compound: COc1cc2c(cc1OC)C1CC3(CCN1CC2)CC(=O)NC3=O (stereo not drawn)
- T/C [1]: 97 % of control
- T/C [2]: 99 % of control
- T/C [3]: 90 % of control

Compound: BrC/C(=N\N=C(/CBr)c1ccccc1)c1ccccc1
- T/C [4]: 103 % of control
- T/C [5]: 112 % of control
- T/C [6]: 96 % of control

Compound: CC(O)C(=O)N(CCO)CCO (stereo not drawn)
- T/C [1]: 108 % of control
- T/C [2]: 101 % of control
- T/C [3]: 104 % of control

Compound: O=NNc1ncccn1
- T/C (dose: 3.12 mg/kg/injection, schedule: Q01DX009 (ip), vehicle: water): 96 % of control
- T/C (dose: 6.25 mg/kg/injection, schedule: Q01DX009 (ip), vehicle: water): 105 % of control
- T/C (dose: 12.5 mg/kg/injection, schedule: Q01DX009 (ip), vehicle: water): 93 % of control
- T/C (dose: 25.0 mg/kg/injection, schedule: Q01DX009 (ip), vehicle: water): 101 % of control
- T/C (dose: 50.0 mg/kg/injection, schedule: Q01DX009 (ip), vehicle: water): 102 % of control
- T/C (dose: 100.0 mg/kg/injection, schedule: Q01DX009 (ip), vehicle: water): 93 % of control

Compound: O=C1c2ccccc2N(C(=O)CN2CCOCC2)CN1c1ccccc1
- T/C [7]: 98 % of control
- T/C [8]: 100 % of control
- T/C [9]: 98 % of control

Compound: c1cc2cc3c(cc2o1)OC[C@H]1c2cc4c(cc2O[C@@H]31)OCO4
- T/C (dose: 100.0 mg/kg/injection, schedule: Q01DX001 (ip), vehicle: Klucel (hydroxypropylcellulose) (HPC)): 91 % of control
- T/C (dose: 200.0 mg/kg/injection, schedule: Q01DX001 (ip), vehicle: Klucel (hydroxypropylcellulose) (HPC)): 87 % of control

Compound: Cc1[nH]c2ccccc2c1SCc1ccccc1
- T/C (dose: 25.0 mg/kg/injection, schedule: Q01DX009 (ip), vehicle: saline + alcohol): 94 % of control
- T/C [10]: 100 % of control
- T/C [11]: 99 % of control

Compound: COc1cc(-c2c(C)oc(C)c2C(C)=O)ccc1OCc1ccccc1
- T/C (dose: 60.0 mg/kg/injection, schedule: Q01DX005 (ip), vehicle: Klucel (hydroxypropylcellulose) (HPC)): 92 % of control
- T/C (dose: 120.0 mg/kg/injection, schedule: Q01DX005 (ip), vehicle: Klucel (hydroxypropylcellulose) (HPC)): 97 % of control
- T/C (dose: 240.0 mg/kg/injection, schedule: Q01DX005 (ip), vehicle: Klucel (hydroxypropylcellulose) (HPC)): 91 % of control

Compound: COC(=O)c1nc(=S)[nH]c(C(=O)OC)c1C(=O)c1ccccn1
- T/C (dose: 60.0 mg/kg/injection, schedule: Q01DX005 (ip), vehicle: Klucel + Tween-80): 105 % of control
- T/C (dose: 120.0 mg/kg/injection, schedule: Q01DX005 (ip), vehicle: Klucel + Tween-80): 95 % of control
- T/C (dose: 240.0 mg/kg/injection, schedule: Q01DX005 (ip), vehicle: Klucel + Tween-80): 95 % of control

Compound: COC1=CC(=O)C2CC=CC3CC(=O)OC1C32CO (stereo not drawn)
- T/C [12]: 113 % of control
- T/C [13]: 103 % of control
- T/C [14]: 101 % of control

Compound: COc1c2c(nc3ccccc13)-c1cc3c(c(=O)n1C2)COC(=O)C3(O)CC(=O)N1CCOCC1 (stereo not drawn)
- T/C (dose: 12.5 mg/kg/injection, schedule: Q01DX009 (ip), vehicle: saline): 150 % of control
- T/C [7]: 160 % of control
- T/C [8]: 161 % of control
- T/C (dose: 100.0 mg/kg/injection, schedule: Q01DX009 (ip), vehicle: suspension in saline): 169 % of control
- T/C (dose: 200.0 mg/kg/injection, schedule: Q01DX009 (ip), vehicle: suspension in saline): 104 % of control

Compound: CC1=CC2C3C(=O)NC(=O)C3C1(C)C1C3C(=O)NC(=O)C3C21 (stereo not drawn)
- T/C (dose: 60.0 mg/kg/injection, schedule: Q01DX005 (ip), vehicle: saline with Tween-80): 100 % of control
- T/C (dose: 120.0 mg/kg/injection, schedule: Q01DX005 (ip), vehicle: saline with Tween-80): 100 % of control
- T/C (dose: 240.0 mg/kg/injection, schedule: Q01DX005 (ip), vehicle: saline with Tween-80): 101 % of control

Compound: CSc1ccc(OC(=O)Nc2ccc(Cl)c(Cl)c2)c(C)c1
- T/C [10]: 87 % of control
- T/C [11]: 87 % of control
- T/C (dose: 200.0 mg/kg/injection, schedule: Q01DX009 (ip), vehicle: saline + alcohol): 95 % of control

Compound: Cc1cc(C(O)(C(F)(F)F)C(F)(F)F)c(N)c(C(O)(C(F)(F)F)C(F)(F)F)c1
- T/C [12]: 104 % of control
- T/C [13]: 103 % of control

Compound: CC1CCC2(OC1)OC1CC3C4CCC5CC(O)CCC5(C)C4CCC3(C)C1C2C (stereo not drawn)
- T/C (dose: 10.0 mg/kg/injection, schedule: Q01DX009 (ip), vehicle: Klucel (hydroxypropylcellulose) (HPC)): 108 % of control
- T/C (dose: 20.0 mg/kg/injection, schedule: Q01DX009 (ip), vehicle: Klucel (hydroxypropylcellulose) (HPC)): 117 % of control
- T/C (dose: 40.0 mg/kg/injection, schedule: Q01DX009 (ip), vehicle: Klucel (hydroxypropylcellulose) (HPC)): 119 % of control

Compound: CN(C)CCCN1C(=O)C2CCC(C)(C1=O)C2(C)C (stereo not drawn)
- T/C [15]: 100 % of control
- T/C [16]: 101 % of control

Compound: CCCCCCCCCCC(=O)CCCC
- T/C [17]: 109 % of control
- T/C [18]: 100 % of control
- T/C [19]: 104 % of control
- T/C [20]: 95 % of control
- T/C (dose: 400.0 mg/kg/injection, schedule: Q01DX009 (ip), vehicle: saline with Tween-80): 109 % of control
- T/C (dose: 400.0 mg/kg/injection, schedule: Q04DX003 (ip), vehicle: saline with Tween-80): 95 % of control

Compound: CCN(CC)CCOCC1CC2C(C=C1C)C2(C)C (stereo not drawn)
- T/C [1]: 107 % of control
- T/C [2]: 98 % of control

Compound: CC(=O)c1ccc(O)c(O)c1O
- T/C [8]: 103 % of control and 104 % of control
- T/C [9]: 107 % of control and 120 % of control
- T/C (dose: 600.0 mg/kg/injection, schedule: Q01DX009 (ip), vehicle: saline): 103 % of control and 104 % of control

Compound: O=C(O)CNC(=O)NC(Cc1ccccc1)C(=O)O (stereo not drawn)
- T/C [15]: 105 % of control
- T/C [16]: 105 % of control
- T/C (dose: 200.0 mg/kg/injection, schedule: Q01DX005 (ip), vehicle: saline with Tween-80): 93 % of control

Compound: CCC/C=C1/OC(=O)C2=C[C@H]3CC[C@]21[C@]1(OC(=O)C2=C1CCC=C2)[C@H]3CCC
- T/C (dose: 7.0 mg/kg/injection, schedule: Q01DX005 (ip), vehicle: Klucel (hydroxypropylcellulose) (HPC)): 104 % of control
- T/C (dose: 14.0 mg/kg/injection, schedule: Q01DX005 (ip), vehicle: Klucel (hydroxypropylcellulose) (HPC)): 100 % of control
- T/C (dose: 28.0 mg/kg/injection, schedule: Q01DX005 (ip), vehicle: Klucel (hydroxypropylcellulose) (HPC)): 106 % of control
- T/C (dose: 56.0 mg/kg/injection, schedule: Q01DX005 (ip), vehicle: Klucel (hydroxypropylcellulose) (HPC)): 97 % of control

Compound: CCN(CC)CCNC1=CC(=S)NC(C)(C)C1
- T/C (dose: 25.0 mg/kg/injection, schedule: Q01DX009 (ip), vehicle: saline with Tween-80): 103 % of control
- T/C (dose: 50.0 mg/kg/injection, schedule: Q01DX009 (ip), vehicle: saline with Tween-80): 94 % of control
- T/C [17]: 106 % of control
- T/C [19]: 94 % of control

Compound: COc1cc(/C(=C(\CC(=O)O)C(=O)O)c2ccc3c(c2)OCO3)cc(OC)c1OC
- T/C [12]: 102 % of control and 103 % of control
- T/C [13]: 103 % of control and 111 % of control
- T/C [14]: 99 % of control and 100 % of control

Compound: C=CCOc1ccc2ccc(=O)oc2c1
- T/C (dose: 50.0 mg/kg/injection, schedule: Q04DX003 (ip), vehicle: saline with Tween-80): 109 % of control
- T/C [18]: 104 % of control
- T/C [20]: 101 % of control

Compound: CCCCCCCCCCCCCCCCC[N+]1(CC)CCCCC1
- T/C (dose: 0.39 mg/kg/injection, schedule: Q01DX009 (ip), vehicle: saline): 111 % of control
- T/C (dose: 0.78 mg/kg/injection, schedule: Q01DX009 (ip), vehicle: saline): 116 % of control

Compound: O=S(=O)(Nc1cc2ccccc2cc1NS(=O)(=O)N1CCCCC1)N1CCCCC1
- T/C [4]: 93 % of control
- T/C [5]: 89 % of control

Compound: CCOC(=O)/C(C#N)=C(\O)CCCC(=O)O
- T/C [4]: 88 % of control
- T/C [5]: 91 % of control
- T/C [6]: 90 % of control

Compound: CC1=CC(=O)C=C/C1=N/S(=O)(=O)c1ccccc1
- T/C (dose: 12.5 mg/kg/injection, schedule: Q01DX001 (ip), vehicle: saline with Tween-80): 100 % of control
- T/C (dose: 25.0 mg/kg/injection, schedule: Q01DX001 (ip), vehicle: saline with Tween-80): 90 % of control
- T/C (dose: 50.0 mg/kg/injection, schedule: Q01DX001 (ip), vehicle: saline with Tween-80): 100 % of control
